Consider three compounds from PMC9923724, “Half sandwich-type osmium, ruthenium, iridium and rhodium complexes with bidentate glycosyl heterocyclic ligands induce cytostasis in platinum-resistant ovarian cancer cells and bacteriostasis in Gram-positive multiresistant bacteria” (Frontiers in Chemistry, 2023).

Holding throughout (format): cell-based
For one assay, the system named is ID8 ovarian cancer cells. Description: MTT reduction assay (4 h) on ID8 cells. How it is done: (§1) 3 × 10^3 A2780 cells, 2 × 10^3 ID8 cells and 4 × 10^3 primary fibroblasts were plated to 96 well plates. Cells were treated with the compounds in the concentrations indicated for either 4 h for an MTT assay or for 48 h for an SRB assay. Data is represented as average ± SD, from three biological replicates; individual assays were performed in duplicates. Values were normalized for vehicle treated cells, absorbance for vehicle treated cells equals to 1. Statistical significance was assessed using two-way ANOVA test comparing the free ligand and each complex as a complex-ligand pair. Before the test normality was assessed using the D’Agostino-Pearson test. The ID8 SRB Ir-7+L-7 dataset had lognormal distribution. […] All other datasets had normal distribution. For better visibility the p values are presented in an excel sheet at https://figshare.com/s/2c942a812caea8869a67. Non-linear regression was performed on the A2780 SRB and the ID8 SRB datasets.
ID8 cells were cultured in high glucose DMEM (4.5 g/L glucose) medium supplemented with 4% fetal calf serum, 2 mM glutamine, 1% penicillin-streptomycin, 1% ITS supplement (I3146).
(§2) MTT reduction assay measures the activity of mitochondrial complex I and can be used to detect toxicity ([Virág et al., 1998]; [Henslee et al., 2016]). The assay was performed similar to ([Bakondi et al., 2003]). Briefly, cells were plated in 96 well plates the day before the assay. Cells were treated with the compounds for 4 h, then MTT was added in 0.5 mg/ml final concentration and cells were incubated at 37°C in a cell incubator. Culture media was removed and the reduced MTT dye was dissolved in dimethyl-sulfoxide (DMSO) and plates were measured in a plate photometer (Thermo Scientific Multiscan GO spectrophotometer, Waltham, MA, United States) at 540 nm. On each plate wells were designed to contain untreated/vehicle-treated cells. In calculations the readings for these wells was considered as 1 and all readings were expressed relative to these values.

Assay [1] deals with L428 Hodgkin lymphoma cells. Description: Cell proliferation on L428 cells (counted in Burker chamber). Particulars: head says SRB, cells counted using a Burker chamber. How it is done: (§3) 3 × 10^3 Capan2 cells, 2 × 10^3 Saos cells and 8 × 10^3 L428 were plated to 96 well plates. Cells were treated with the compounds in the concentrations for 48 h. Then for Capan2 and Saos SRB assay was performed, L428 cells were counted using a Burker chamber. Data is represented as average ± SD, from three biological replicates; individual assays were performed in duplicates. Values were normalized for vehicle treated cells, absorbance for vehicle treated cells equals to 1. Normality was checked using the Shapiro-Wilk test. The Saos Os-7 dataset was normalized using the Box-Cox method, other datasets had normal distribution. Each complex was individually assessed for statistical significance using One-way ANOVA test followed by Dunnett’s post hoc test; all values were compared to the values of the lowest concentration. For better visibility the p values are presented in an excel sheet at https://figshare.com/s/2c942a812caea8869a67. Non-linear regression was performed on the Capan2 and Saos datasets.
Cells were seeded in 96 well plates the day before the assay. Cells were treated with the compounds for […]. Cells were counted using a Burker chamber. On each plate wells were designed to contain untreated cells. In calculations the readings for these wells was considered as 1 and all readings were expressed relative to these values.

For assay [2], the system named is A2780 ovarian cancer cells. The assay can be described thus: MTT reduction assay (rapid toxicity, 4 h) on A2780 cells. As to conditions: 4 h treatment. How it is done:
First, we assessed a set of osmium complexes (similar to Ia [[Kacsir et al., 2022]) in Figure 1] and their sugar-derived ligands, in which the benzoyl protective groups on the carbohydrate moiety were replaced by aliphatic acyl groups of different chain length (straight chain C3-C7–CO). Osmium was selected as a central ion, since osmium complexes had the best biological activity in our previous studies ([Balázs et al., 2022]; [Kacsir et al., 2022]). These compounds were tested on A2780 ovarian cancer cells for toxicity and cytostasis. The therapy of ovarian cancer is centered around platinum compounds ([Brown et al., 2019]; [Sipos et al., 2021]), therefore, it was logical to use a cellular model of ovarian cancer for the initial testing of the compounds. Toxicity was assessed using the MTT assay that measures the activity of mitochondrial complex I. We chose 4 h long treatment as in an MTT assay this time point is suitable to detect rapid, direct toxicity. Cytostasis was assessed after 48 h of treatment using the SRB assay that assesses protein content that corresponds to cell count. The characteristics of the compounds are detailed in Table 2.
3 × 10^3 A2780 cells, were plated to 96 well plates. Cells were treated with the compounds in the concentrations indicated for either 4 h for an MTT assay or for 48 h for an SRB assay. Data is represented as average ± SD, from three biological replicates; individual assays were performed in duplicates. Values were normalized for vehicle treated cells, absorbance for vehicle treated cells equals to 1. […] Except for the Os-6 complex, Two-way ANOVA test was performed and all values were compared with each other (Tukey’s post hoc test). […] Non-linear regression was performed on the data.
as §1, §2

Assay [3] relates to primary dermal fibroblasts. The assay can be described thus: SRB assay (48 h) on primary fibroblasts. Particulars: primary human dermal fibroblasts. How it is done: as §1
(§4) Human primary dermal fibroblasts were cultured in low glucose DMEM (1 g/L glucose) medium supplemented with 20% fetal calf serum, 2 mM glutamine, 1% penicillin-streptomycin.
(§5) The assay was performed similar to ([Kovács et al., 2019]). Cells were seeded in 96 well plates the day before the assay. Cells were treated with the compounds for 48 h. Cells were fixed with 10% trichloroacetic acid (TCA). Fixed cells were washed in distilled water 3 times followed by staining with SRB (0.4 m/V% dissolved in 1% acetic acid) for 10 min. Stained cells were washed in 1% acetic acid 5 times; acetic acid was removed and cells were left to dry. Protein-bound SRB was released by adding 100 µl 10 mM Tris base. Plates were measured in a plate photometer (Thermo Scientific Multiscan GO spectrophotometer, Waltham, MA, United States) at 540 nm. On each plate wells were designed to contain vehicle-treated cells. In calculations the readings for these wells was considered as 1 and all readings were expressed relative to these values.

The subject of assay [4] is primary dermal fibroblasts. Description: MTT reduction assay (4 h) on primary fibroblasts. As to conditions: primary human dermal fibroblasts. How it is done: as §1, §4, §2
The subject of a further assay is Saos osteosarcoma cells. Description: SRB assay (48 h) on Saos cells. How it is done:
as §3
Saos cells were maintained in DMEM (4.5 g/L glucose) medium supplemented with 10% fetal calf serum, 2 mM glutamine, 1% penicillin-streptomycin.
as §5
Statistical analysis was performed using 8.0.1 version of Graphpad Prism. Values were tested for normal distribution using the D’Agostino and Pearson normality test. When necessary, values were log normalized or were normalized using the Box-Cox normalization method ([Box and Cox, 1964]) as indicated in the figure captions. Non-linear regression was performed using the built-in “[Inhibitor] vs. response—Variable slope (four parameters), least square fit” utility of Graphpad that yielded IC50 and Hill slope values.

Each structure is given as a SMILES string. Where “and” joins values, the source holds several entries; their conditions need not be identical. Equal entries are not always repeated.

Take `Cc1c(C)c(C)[c-](C)c1C.F[P-](F)(F)(F)(F)F.O=C(OCC1OC(n2cc(-c3ccc4ccccc4n3)nn2)C(OC(=O)c2ccccc2)C(OC(=O)c2ccccc2)C1OC(=O)c1ccccc1)c1ccccc1.[Cl][Ir+2]` (mixture of isomers) [Ir-7]: in the assay with ID8 ovarian cancer cells, the “ID8 MTT Max. (maximal inhibition)” value is recorded as 19.23%. For the same compound, in assay [1], the “L428 maximal inhibition (cell count)” value was above 90%. In assay [2], the “A2780 MTT Max. (maximal inhibition)” value is recorded as 23.2%. Further, the “Fibroblast SRB Max. (maximal inhibition)” value in assay [3] came to 42.83%. Moreover, the “Fibroblast MTT Max. (maximal inhibition)” value in assay [4] came to 12.81%. In the assay with Saos osteosarcoma cells, the IC50 was found to be 1580 nM and the “SAOS SRB Max. (maximal inhibition)” value came to 33%.

As for `Cc1ccc(C(C)C)cc1.F[P-](F)(F)(F)(F)F.O=C(OCC1OC(n2cc(-c3ccc4ccccc4n3)nn2)C(OC(=O)c2ccccc2)C(OC(=O)c2ccccc2)C1OC(=O)c1ccccc1)c1ccccc1.[Cl][Os+]` (mixture of isomers) [Os-7], the “ID8 MTT Max. (maximal inhibition)” value with ID8 ovarian cancer cells is 75% and 74.90%. Also, in assay [1], the “L428 maximal inhibition (cell count)” value was above 90%. In assay [2], the “A2780 MTT Max. (maximal inhibition)” value stood at 33.0%. Moreover, the “Fibroblast SRB Max. (maximal inhibition)” value in assay [3] is on record as 48.94%. The “Fibroblast MTT Max. (maximal inhibition)” value in assay [4] amounted to 30.97%. In the assay on Saos osteosarcoma cells, half-maximal inhibition (IC50) was put at 1290 nM and the “SAOS SRB Max. (maximal inhibition)” value came out at 48.04%.

On to `Cc1ccc(C(C)C)cc1.F[P-](F)(F)(F)(F)F.O=C(OCC1OC(n2cc(-c3ccc4ccccc4n3)nn2)C(OC(=O)c2ccccc2)C(OC(=O)c2ccccc2)C1OC(=O)c1ccccc1)c1ccccc1.[Cl][Ru+]` (mixture of isomers) [Ru-7], for which the “ID8 MTT Max. (maximal inhibition)” value in the assay with ID8 ovarian cancer cells stood at 32.56%. Further, in assay [1], the “L428 maximal inhibition (cell count)” value is 52.73%. Besides, the “A2780 MTT Max. (maximal inhibition)” value in assay [2] is on record as 23.4%. The “Fibroblast SRB Max. (maximal inhibition)” value in assay [3] is on record as 50.04%. Besides, the “Fibroblast MTT Max. (maximal inhibition)” value in assay [4] is 23.93%. In addition, in the assay on Saos osteosarcoma cells, the IC50 was determined as 1180 nM and the “SAOS SRB Max. (maximal inhibition)” value amounted to 33.64%.
